IC50 and AC50 data for 17 molecules are collected here from ChEMBL document CHEMBL1201862, “PubChem BioAssay data set” (2004).

Activity calls are given as the source filed them.

T1 sequence (P49327 whole entry, the tested form may be a part): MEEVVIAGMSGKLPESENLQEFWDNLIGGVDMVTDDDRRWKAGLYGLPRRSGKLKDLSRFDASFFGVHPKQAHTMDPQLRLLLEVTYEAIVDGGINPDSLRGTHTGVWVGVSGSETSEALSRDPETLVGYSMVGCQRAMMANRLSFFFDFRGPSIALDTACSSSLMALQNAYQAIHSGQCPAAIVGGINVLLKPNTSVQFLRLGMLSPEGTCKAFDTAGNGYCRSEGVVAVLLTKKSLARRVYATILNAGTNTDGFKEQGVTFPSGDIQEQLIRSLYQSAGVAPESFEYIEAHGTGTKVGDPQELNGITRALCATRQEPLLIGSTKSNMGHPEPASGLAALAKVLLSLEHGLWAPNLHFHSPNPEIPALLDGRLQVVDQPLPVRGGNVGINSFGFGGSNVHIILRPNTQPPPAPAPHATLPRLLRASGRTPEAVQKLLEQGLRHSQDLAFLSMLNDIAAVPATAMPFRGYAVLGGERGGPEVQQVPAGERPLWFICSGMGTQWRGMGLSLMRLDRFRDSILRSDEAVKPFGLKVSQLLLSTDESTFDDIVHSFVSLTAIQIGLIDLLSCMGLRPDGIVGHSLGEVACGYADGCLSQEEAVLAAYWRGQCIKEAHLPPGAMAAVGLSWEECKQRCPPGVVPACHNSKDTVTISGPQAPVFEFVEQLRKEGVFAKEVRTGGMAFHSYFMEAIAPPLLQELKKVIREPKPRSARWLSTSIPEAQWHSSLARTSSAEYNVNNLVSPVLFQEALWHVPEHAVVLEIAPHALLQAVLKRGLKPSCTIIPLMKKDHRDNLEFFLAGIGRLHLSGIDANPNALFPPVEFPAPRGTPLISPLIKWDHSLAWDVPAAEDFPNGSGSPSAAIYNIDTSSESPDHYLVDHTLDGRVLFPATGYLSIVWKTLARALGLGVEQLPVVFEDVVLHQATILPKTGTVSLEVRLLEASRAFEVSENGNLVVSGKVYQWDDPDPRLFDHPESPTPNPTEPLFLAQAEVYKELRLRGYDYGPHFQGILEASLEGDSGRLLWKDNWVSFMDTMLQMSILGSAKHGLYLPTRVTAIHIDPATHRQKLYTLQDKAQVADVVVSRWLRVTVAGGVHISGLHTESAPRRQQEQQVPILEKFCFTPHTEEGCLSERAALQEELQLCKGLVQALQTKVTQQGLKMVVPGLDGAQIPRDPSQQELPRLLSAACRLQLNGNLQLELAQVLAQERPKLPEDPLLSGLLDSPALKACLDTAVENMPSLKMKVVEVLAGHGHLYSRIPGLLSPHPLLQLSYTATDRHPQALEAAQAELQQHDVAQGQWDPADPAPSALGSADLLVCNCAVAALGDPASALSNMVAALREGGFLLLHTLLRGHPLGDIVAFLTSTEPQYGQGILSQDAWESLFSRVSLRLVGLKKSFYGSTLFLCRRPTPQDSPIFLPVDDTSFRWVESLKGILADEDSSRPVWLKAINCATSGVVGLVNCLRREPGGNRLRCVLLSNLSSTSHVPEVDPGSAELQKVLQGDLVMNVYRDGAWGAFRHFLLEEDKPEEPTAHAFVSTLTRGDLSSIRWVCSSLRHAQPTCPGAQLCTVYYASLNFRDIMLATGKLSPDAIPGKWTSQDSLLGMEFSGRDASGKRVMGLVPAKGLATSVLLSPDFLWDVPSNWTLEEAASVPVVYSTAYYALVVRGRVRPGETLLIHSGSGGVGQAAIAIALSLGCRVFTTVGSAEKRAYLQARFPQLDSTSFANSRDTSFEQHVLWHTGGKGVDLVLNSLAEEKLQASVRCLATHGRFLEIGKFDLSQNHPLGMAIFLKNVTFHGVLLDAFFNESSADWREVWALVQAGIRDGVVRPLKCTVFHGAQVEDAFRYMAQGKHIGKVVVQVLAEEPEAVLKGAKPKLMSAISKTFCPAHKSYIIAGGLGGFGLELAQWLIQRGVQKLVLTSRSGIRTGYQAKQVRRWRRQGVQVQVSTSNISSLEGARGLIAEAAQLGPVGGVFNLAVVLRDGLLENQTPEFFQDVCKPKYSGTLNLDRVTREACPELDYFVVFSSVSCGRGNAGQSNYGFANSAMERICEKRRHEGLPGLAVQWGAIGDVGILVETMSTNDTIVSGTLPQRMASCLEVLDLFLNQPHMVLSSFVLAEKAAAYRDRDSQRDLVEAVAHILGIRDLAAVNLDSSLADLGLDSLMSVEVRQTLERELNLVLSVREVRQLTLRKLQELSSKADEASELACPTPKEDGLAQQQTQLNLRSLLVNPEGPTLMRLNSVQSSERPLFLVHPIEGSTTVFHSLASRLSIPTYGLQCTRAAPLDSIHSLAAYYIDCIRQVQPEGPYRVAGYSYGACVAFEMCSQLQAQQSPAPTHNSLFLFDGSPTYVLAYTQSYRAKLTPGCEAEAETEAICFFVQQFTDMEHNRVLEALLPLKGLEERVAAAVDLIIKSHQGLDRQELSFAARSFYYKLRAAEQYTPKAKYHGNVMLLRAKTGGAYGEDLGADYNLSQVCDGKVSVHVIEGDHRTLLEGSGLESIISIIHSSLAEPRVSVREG

One assay addresses T1, Fatty acid synthase (Homo sapiens, UniProt P49327). The experiment in a line: FAS thioesterase domain inhibitors, dose response, biochemical, kinetic fluorescence intensity (AID 624326).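 Further: rate of fluorescence rise from hydrolysis of a fluorogenic O-methyl fluorescein ester substrate.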 Format: functional.
Conditions: not given
Take `CC(C)(C)c1ccc(C(=O)N2CCC2(C)C(=O)NS(=O)(=O)c2ccc(C#N)cc2)cc1` (stereo not drawn): the IC50 was 8.79 µM (active).

Another assay deals with T2, Coagulation factor XII (Homo sapiens, UniProt P00748).
T2 sequence (P00748 whole entry): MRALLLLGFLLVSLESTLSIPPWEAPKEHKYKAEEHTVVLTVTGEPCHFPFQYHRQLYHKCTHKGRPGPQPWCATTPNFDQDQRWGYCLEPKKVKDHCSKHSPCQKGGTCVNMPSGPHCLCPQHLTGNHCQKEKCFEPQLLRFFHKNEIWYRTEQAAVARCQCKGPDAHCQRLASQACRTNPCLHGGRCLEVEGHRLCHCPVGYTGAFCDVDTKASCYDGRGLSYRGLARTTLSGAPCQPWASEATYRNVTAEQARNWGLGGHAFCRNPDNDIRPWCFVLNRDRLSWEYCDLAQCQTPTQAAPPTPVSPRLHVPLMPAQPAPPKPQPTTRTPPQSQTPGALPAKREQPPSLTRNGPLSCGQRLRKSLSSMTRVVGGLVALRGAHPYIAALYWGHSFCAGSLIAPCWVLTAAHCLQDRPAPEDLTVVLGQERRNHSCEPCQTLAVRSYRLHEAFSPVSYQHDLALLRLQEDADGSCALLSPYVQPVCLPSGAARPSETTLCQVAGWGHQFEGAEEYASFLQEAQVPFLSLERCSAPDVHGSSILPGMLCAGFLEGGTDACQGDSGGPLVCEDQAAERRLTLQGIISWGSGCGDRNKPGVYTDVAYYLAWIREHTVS
Experiment: not given
Format: functional.
Conditions: not given
For `COC(=O)c1c(NC(=O)c2ccc(Br)s2)sc2c1CCC2`, the IC50 is 44.4 µM (active).

With `O=C(NCc1ccc2c3c(cccc13)C(=O)N2)c1cccs1`, the IC50 is > 50 µM (inactive). On to `Cc1c(NC(=O)c2ccc(Br)o2)cccc1C(=O)O`, for which the IC50 is > 50 µM (inactive). Consider `Cc1ccccc1Cn1cnc2c(NS(C)(=O)=O)c(C)c(C)cc21`, for which the IC50 was > 50 µM (inactive). The same measure, in the same setting: the same measure for `CCn1cc(C(=O)NCc2cccnc2)c(=O)c2cc(F)c(N3CCN(C(=O)c4ccco4)CC3)cc21`: > 50 µM (inactive); for `Cc1noc(C)c1CSc1nc2ccccc2c(=O)n1-c1ccc(F)cc1F`: > 50 µM (inactive). Regarding `COc1ccc(N2CCCn3c2nc2c3c(=O)n(Cc3ccc(C)cc3)c(=O)n2C)c(OC)c1`, the IC50 was > 50 µM (inactive).

On to `[O-][S+](NC1CCCCC1)C12CC3CC(CC(C3)C1)C2` (stereo not drawn), for which the IC50 is > 50 µM (inactive). The same measure, in the same setting: the same measure for `O=C(Oc1ccc2c(=O)c(Cl)coc2c1)c1ccncc1`: 18 µM (active); for `O=C(O)CCN1C(=O)C2C3c4ccccc4C(c4ccccc43)[C@@H]2C1=O` (stereo partly drawn): > 50 µM (inactive).

Take `CO/N=C/c1ccc(Sc2ccccc2N)c([N+](=O)[O-])c1`: the IC50 is > 50 µM (inactive).

System in another assay: not listed separately
The experiment in a line: inhibitors of clade B AD8 Env fusion, dose response, cell-based, cherry-pick (AID 652062).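 Further: luciferase signal from cell-cell fusion driven by HIV-1 clade B AD8 Env; potency is for inhibitors of fusion seen as a drop in luminescence.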
Conditions: not given
Format: functional.
For `CC(C)NC(=O)Nc1ccc2c(c1)C(=O)N([C@@H](C)CO)C[C@@H](C)[C@@H](CN(C)C(=O)CCC(F)(F)F)OCCCC[C@@H](C)O2`, the AC50 is 2.7 µM (active).

In another assay the target is T3, Calpain-2 catalytic subunit (Sus scrofa, UniProt P43367).
T3 sequence (P43367 whole entry): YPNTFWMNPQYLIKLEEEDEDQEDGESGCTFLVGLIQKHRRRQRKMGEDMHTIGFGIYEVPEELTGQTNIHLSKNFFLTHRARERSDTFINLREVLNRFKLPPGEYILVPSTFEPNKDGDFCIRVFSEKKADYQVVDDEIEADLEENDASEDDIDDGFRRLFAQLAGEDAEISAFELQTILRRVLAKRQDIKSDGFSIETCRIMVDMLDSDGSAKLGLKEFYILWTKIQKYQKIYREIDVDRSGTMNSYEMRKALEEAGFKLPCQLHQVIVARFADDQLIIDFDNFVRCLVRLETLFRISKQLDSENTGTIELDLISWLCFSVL
The experiment in a line: pig calpain II inhibitor potency, dose response, biochemical, fluorogenic peptide substrate (AID 1420). Format: functional.
Conditions: not given
As for `Cc1noc(C)c1CSc1nc2ccccc2c(=O)n1-c1ccc(F)cc1F`, the IC50 is listed as 4.76 µM (not active). `CO/N=C/c1ccc(Sc2ccccc2N)c([N+](=O)[O-])c1`: the concentration for half-maximal inhibition (IC50) is 9.01 µM (not active).

In a further assay the test system is H9c2. Nature of the assay: cells. As to conditions: Rattus norvegicus, H9c2, Myocardium. Format: functional, cell-based.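 Further: confirmatory concentration-response retest of ultra-high-throughput screening hits for modulation of myocardial damage; cell death induced by hydrogen peroxide oxidative stress; compound pretreatment for 60 min then peroxide exposure for 2 h; potency is for protecting the cells against peroxide damage rather than for killing them.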
On to `CNC(=O)COC(=O)/C=C/c1cn(-c2ccccc2)nc1-c1ccc(C)o1`, for which the IC50 was > 79 µM (inactive).

System in a further assay: not listed separately
The experiment in a line: ZM109 Env clade C HIV-1 fusion inhibitors, dose response, HeLa effector, CEM target cells, luciferase, cherry-pick (AID 652058). Format: functional, cell-based.
Conditions: not given
`CC(C)NC(=O)Nc1ccc2c(c1)C(=O)N([C@@H](C)CO)C[C@@H](C)[C@@H](CN(C)C(=O)CCC(F)(F)F)OCCCC[C@@H](C)O2`: the AC50 was 0.518 µM (active).

A further assay has as its target T1, Fatty acid synthase. Nature of the assay: FAS thioesterase domain inhibitors, dose response, biochemical, endpoint fluorescence intensity, uHTS hits (AID 624327).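 Further: fluorescence from hydrolysis of an O-methyl fluorescein acyl ester substrate by the enzyme.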
Conditions: not given
Format: functional.
As for `CC(C)(C)c1ccc(C(=O)N2CCC2(C)C(=O)NS(=O)(=O)c2ccc(C#N)cc2)cc1` (stereo not drawn), the IC50 is 9.51 µM (active).

System in a further assay: not listed separately
Nature of the assay: inhibitors of HIV Env-driven cell fusion, dose response, cherry-pick (AID 652057). Format: functional, cell-based.
Conditions: not given
Take `CC(C)NC(=O)Nc1ccc2c(c1)C(=O)N([C@@H](C)CO)C[C@@H](C)[C@@H](CN(C)C(=O)CCC(F)(F)F)OCCCC[C@@H](C)O2`: the AC50 is 0.969 µM (active).

The next assay concerns the target T4, Ubiquitin-conjugating enzyme E2 N (Homo sapiens, UniProt P61088).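 Further: Dose-response confirmation in a TR-FRET assay detecting UBC13-driven polyubiquitin chain formation, inhibition measured.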
T4 sequence (P61088 whole entry): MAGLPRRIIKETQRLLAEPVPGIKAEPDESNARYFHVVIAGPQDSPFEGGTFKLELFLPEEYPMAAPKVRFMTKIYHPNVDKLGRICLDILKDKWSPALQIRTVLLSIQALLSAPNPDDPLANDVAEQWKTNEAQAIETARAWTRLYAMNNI
Experiment: not given
Format: functional.
Conditions: not given
As for `O=C1c2cc(Cl)ccc2OC2(CCNCC2)C12CC(c1ccc(Cl)cc1)=NO2` (stereo not drawn), the IC50 was > 20 µM (inactive).

Consider `CNC(=O)COC(=O)/C=C/c1cn(-c2ccccc2)nc1-c1ccc(C)o1`, for which the IC50 is > 20 µM (inactive). Still for that read-out and setting: with `CCc1nc2ccccc2c(C(=O)OCCN2C(=O)c3ccccc3C2=O)c1C` the figure was > 20 µM (inactive); with `C#CCOCCOCCOCCNc1nc(N2CCN(C(=O)[C@H](CCCN=C(N)N)n3cc(C(N)[C@@H](C)CC)nn3)CC2)nc(N2CCN(C(=O)[C@H](CCCCN)n3cc([C@@H](N)CC(N)=O)nn3)CC2)n1` (stereo partly drawn), > 20 µM (inactive).
